Consider 8 compounds from patent publication US8906894B1, “Methods for preventing and treating thrombotic disorders” (priority 2000, dated 2014).

A value given as a limit tells only on which side of the number the result lay.

One data set has as its system rat brain. As to the kind of experiment: infarct volume after middle cerebral artery occlusion (MCAO). The class given is in vivo. The method, then: Adult male rats weighing 200-250 g were anesthetized. Focal cerebral ischemia was induced by ligature of the left common carotid artery and occlusion of the ipsilateral distal middle cerebral artery (MCAO). […] Rats subjected to sham MCAO operation served as control. To determine infarct volume, the brains were removed 48 hours after MCAO and a series of coronal brain slices were obtained and stained with 1% 2,3,5-triphenyl-tetrazolium chloride in 0.1M phosphate buffer. The infarct volume was determined by adding the infarct volumes, which were unstained by the dye.

The test system of another data set is platelets. The data set can be described thus: epinephrine-induced platelet aggregation. The class given is cell-based, human. From the text: During the study, optical density was continuously recorded.
For another data set, the system named is β-amyloid. The data set can be described thus: inhibition of β-amyloid.
Another data set has as its system NO production. The data set can be described thus: stimulation of NO production.
The subject of data set [1] is blood vessels. The data set can be described thus: vasodilation of blood vessels.
The test system of data set [2] is blood vessels. As to the kind of experiment: inhibition of contraction.
The conditions of data set [3]: patients; cited from earlier work.
The conditions of data set [4]: cited from earlier work.
The subject of data set [5] is human platelets. The data set can be described thus: ADP-induced human platelet aggregation, preincubation with drug. Conditions: data not shown. The class given is cell-based. The method, then: (§1) 500 microliter of whole blood was diluted with equal volume of 0.9% sodium chloride and prewarmed at 37° C. for 5 minutes. For optical studies, platelet rich plasma blood was mixed gently and immediately centrifuged at 180 g for 10 min to obtain platelet-rich plasma (PRP). Platelet poor plasma (PPP) was obtained by centrifugation at 1800 g for 15 minutes at room temperature. The platelet concentration in the PRP was adjusted to approximately 250×10^9 cells/l using PPP. Readings were taken at 37° C. at a stirring speed of 1200 rpm.
Aggregation agonists were used at a final concentration of 2.0×10^−5 M for ADP, 0.19 mg/ml for collagen, 500 μg/ml for arachidonic acid, and 1×10^−4 M for epinephrine. During the study, optical density was continuously recorded. The 0% and 100% aggregation levels were set with PRP and PPP, respectively. The maximal percentage of platelet aggregation was calculated as the light transmission between platelet-rich and platelet-poor plasma (100%). When a stable baseline was obtained with 450 μl of PRP, 50 μl of one of the aggregation-inducing agents was added. The maximum height and slope of the aggregation curves were determined. After the electrode was immersed in the sample, platelet aggregation to various agonists (collagen, ADP, arachidonic acid or epinephrine) was measured in ohms of impedance. […]

Data set [6] relates to human platelets. The data set can be described thus: collagen-induced human platelet aggregation, preincubation with drug. The class given is cell-based. To be noted: 15 min preincubation; for peak aggregation: collagen (baseline around 89%). On the procedure: as §1
Aggregation agonists were used at a final concentration of 2.0×10^−5 M for ADP, 0.19 mg/ml for collagen, 500 μg/ml for arachidonic acid, and 1×10^−4 M for epinephrine. During the study, optical density was continuously recorded. The 0% and 100% aggregation levels were set with PRP and PPP, respectively. The maximal percentage of platelet aggregation was calculated as the light transmission between platelet-rich and platelet-poor plasma (100%). When a stable baseline was obtained with 450 μl of PRP, 50 μl of one of the aggregation-inducing agents was added. The maximum height and slope of the aggregation curves were determined. After the electrode was immersed in the sample, platelet aggregation to various agonists (collagen, ADP, arachidonic acid or epinephrine) was measured in ohms of impedance. The lag phase was defined as the delay time occurring between the addition of collagen and the beginning of the aggregation curve.
Blood samples were preincubated in 50 μM or 100 μM rasagiline, a MAO-B inhibitor, for 15 minutes and aggregation stimulated using collagen. […] Aggregation onset was also delayed by treatment with rasagiline.

For the compound `C#CCN(C)[C@H](C)Cc1ccccc1` [1-deprenyl, L-deprenyl], the “blood vessel disruption and bleeding” value in the data set with rat brain (following 1-deprenyl administration) was “reduced”. In addition, in the data set on platelets, the “platelet aggregation induced by epinephrine” value is “inhibited the platelet aggregation”. Further, the “ability to inhibit β-amyloid” value in the data set with β-amyloid is reported as “inhibit β-amyloid”. In addition, in the data set with NO production, the “ability to stimulate NO production” value was “stimulate NO production” and the “lowest concentration with stimulatory effect on NO production” value turned out to be 1 µM. The “ability to dilate blood vessels” value in the data set on blood vessels [1] is reported as “dilate blood vessels”. Besides, the “dose causing rapid NO-mediated endothelium-dependent vasodilation” value with blood vessels [1] (low doses) was no more than 10 µM. Further, the “ability to inhibit contraction” value in the data set on blood vessels [2] is “inhibit contraction”.

On to `Cl.NCCNC(=O)c1ccc(Cl)cc1` [RO-16-6491, N-(2-aminoethyl)4-chlorobenzamide hydrochloride], for which, in the data set on β-amyloid, the “ability to inhibit β-amyloid” value is on record as “inhibit β-amyloid”. The “ability to stimulate NO production” value with NO production is recorded as “stimulate NO production”. The “ability to dilate blood vessels” value in the data set with blood vessels [1] is on record as “dilate blood vessels”. The “ability to inhibit contraction” value with blood vessels [2] is reported as “inhibit contraction”.

On to `Cl.NCCNC(=O)c1ncsc1-c1cccc(F)c1` [RO-41-1049, N-(2-aminoethyl)-5-(3-fluorophenyl)-4-thiazolecarboxamide hydro-chloride], for which, in the data set with β-amyloid, the “ability to inhibit β-amyloid” value is listed as “inhibit β-amyloid”. For the same compound, the “ability to stimulate NO production” value in the data set on NO production is on record as “stimulate NO production”. Moreover, in the data set with blood vessels [1], the “ability to dilate blood vessels” value was “dilate blood vessels”. Further, the “ability to inhibit contraction” value with blood vessels [2] is “inhibit contraction”.

With `CC(=O)Oc1ccccc1C(=O)O` [aspirin, Acetylsalicylic acid], the “reduction of infarct size” value in the data set on rat brain (aspirin 30 mg/kg intraperitoneally 2 hours prior to MCAO, brains 48 hours after MCAO, vs untreated control) is given as “about 30%”. Besides, the “relative risk reduction of CVD” value in data set [3] is given as 25%.

For `COC(=O)[C@H](c1ccccc1Cl)N1CCc2sccc2C1` [clopidogrel], in data set [4] (by cytochrome P450 isoforms), the “share of drug converted to active metabolites in the liver” value is 15%. Also, in [4] (in vivo), the “share of prodrug converted into inactive metabolites” value is recorded as 85%.

For `C#CCN(C)CCCOc1ccc(Cl)cc1Cl` [clorgyline], in the data set on β-amyloid, the “ability to inhibit β-amyloid” value is “inhibit β-amyloid”. The “ability to stimulate NO production” value with NO production was “stimulate NO production”. Further, the “ability to dilate blood vessels” value with blood vessels [1] is recorded as “dilate blood vessels”. Further, the “ability to inhibit contraction” value in the data set with blood vessels [2] is “inhibit contraction”.

Take `C#CCN(C)Cc1ccccc1` [pargyline]: the “ability to inhibit β-amyloid” value in the data set with β-amyloid is reported as “inhibit β-amyloid”. For the same compound, in the data set with NO production, the “ability to stimulate NO production” value is recorded as “stimulate NO production”. Moreover, in the data set on blood vessels [1], the “ability to dilate blood vessels” value is listed as “dilate blood vessels”. Also, in the data set with blood vessels [2], the “ability to inhibit contraction” value is on record as “inhibit contraction”.

`C#CCN[C@@H]1CCc2ccccc21` [rasagiline]: the inhibition (commonly the relative decrease from the control value, in per cent) at 100 µM in the data set with human platelets [5] was determined as 69%. Besides, in the data set on human platelets [6] (50 μM or 100 μM, collagen), the aggregation onset result is given as “delayed”. Besides, the peak aggregation with human platelets [6] (50 μM) was 35%; in the data set on human platelets [6] (100 μM), “negligible levels”.
